Patent US7498436B2, “Substituted hydroxyethylamines” (Pharmacia & Upjohn Company LLC, priority 2002, dated 2009)

melting point [°C] | Structure (SMILES)
205 to 209 | CCCN(CCC)C(=O)c1cc(C(=O)N[C@@H](Cc2ccccc2)[C@H](O)CNCc2cccc(OC)c2)cc(-c2ccc(OC)cc2)c1.Cl
230 to 233 | CCCN(CCC)C(=O)c1cc(C(=O)N[C@@H](Cc2cc(F)cc(F)c2)[C@H](O)CNCc2cccc(OC)c2)cc(-c2ccccc2)c1.Cl
214 to 219 | CCCN(CCC)C(=O)c1cc(C(=O)N[C@@H](Cc2ccccc2)[C@H](O)CNCc2cccc(OC)c2)cc(-c2ccccc2)c1.Cl
199 to 201 | CCCN(CCC)C(=O)c1cc(C(=O)N[C@@H](Cc2ccccc2)[C@H](O)CNCc2cccc(OC)c2)cc(-c2ccsc2)c1.Cl
